Test results from patent US20230416205A1, “COMPOUNDS, COMPOSITIONS, AND METHODS” (Denali Therapeutics Inc, priority 2020, published 2023).
Read-outs that look alike come from different tables or passages of the source.

Tested on: NLRP3
Test: IL-1β secretion assay in PMA-differentiated, LPS/nigericin-stimulated THP-1 cells (384-well, ELISA read-out)
Format: cell-based, human
Settings: Homo sapiens
Outline: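 THP-1 cells differentiated with PMA (5 ng/mL, 40 h), primed in serum-free medium with 25 ng/mL LPS for 2 h, treated with compounds 1 h (0.5% DMSO), then stimulated with nigericin for 2 h at 37 °C. Supernatant IL-1β measured by ELISA; responses normalized to LPS+5 μM nigericin and LPS-only controls.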

[1] = THP-1, IL-1β secretion, PMA-differentiated THP-1 cells, LPS then nigericin stimulation, ELISA read at 450 nm, read-out: Activity
[2] = THP-1, Table 4, IL-1β secretion, LPS/nigericin-stimulated THP-1 cells, read-out: IC50

SMILES | IC50 [1] | IC50 [2]
O=C(CN1CC2(CC2)c2cc(Br)c(F)cc2C1=O)Nc1ncc(F)cn1 [Example 99, 2-(6-bromo-7-fluoro-1-oxospiro[3H-isoquinoline-4,1′-cyclopropane]-2-yl)-N-(5-fluoropyrimidin-2-yl)acetamide] | < 10 µM | 0.598 µM
O=C(CN1CC2(CC2)c2c(ccc(C3CC3)c2F)C1=O)Nc1ncc(F)cn1 [Example 100, 2-(6-cyclopropyl-5-fluoro-1-oxospiro[3H-isoquinoline-4,1′-cyclopropane]-2-yl)-N-(5-fluoropyrimidin-2-yl)acetamide] | < 10 µM | 0.114 µM
CC(F)(F)c1ccc2c(c1)C1(CC1)CN(CC(=O)Nc1ncc(F)cn1)C2=O [Example 101, 2-[6-(1,1-difluoroethyl)-1-oxospiro[3H-isoquinoline-4,1′-cyclopropane]-2-yl]-N-(5-fluoropyrimidin-2-yl)acetamide] | < 10 µM | 0.672 µM
O=C(CN1CC2(CC2)c2cc(Br)ccc2C1=S)Nc1ncc(F)cn1 [Example 102, 2-(6-bromo-1-sulfanylidenespiro[3H-isoquinoline-4,1′-cyclopropane]-2-yl)-N-(5-fluoropyrimidin-2-yl)acetamide] | < 10 µM | 0.169 µM
O=C(CN1CC2(CC2)c2cc(Br)ccc2C1=O)Nc1ncc(-c2ccccn2)cn1 [Example 104, 2-(6-bromo-1-oxospiro[3H-isoquinoline-4,1′-cyclopropane]-2-yl)-N-(5-pyridin-2-ylpyrimidin-2-yl)acetamide] | < 10 µM | 1.87 µM
N#Cc1cnc(NC(=O)CN2CC3(CC3)c3c(ccc(Br)c3F)C2=O)nc1 [Example 105, 2-(6-bromo-5-fluoro-1-oxospiro[3H-isoquinoline-4,1′-cyclopropane]-2-yl)-N-(5-cyanopyrimidin-2-yl)acetamide] | < 10 µM | 0.119 µM
N#Cc1cnc(NC(=O)CN2CC3(CC3)c3c(ccc(Br)c3F)C2=O)c(F)c1 [Example 106, 2-(6-bromo-5-fluoro-1-oxospiro[3H-isoquinoline-4,1′-cyclopropane]-2-yl)-N-(5-cyano-3-fluoropyridin-2-yl)acetamide] | < 10 µM | 0.156 µM
N#Cc1ccnc(NC(=O)CN2CC3(CC3)c3cc(Br)ccc3C2=O)n1 [Example 107, 2-(6-bromo-1-oxospiro[3H-isoquinoline-4,1′-cyclopropane]-2-yl)-N-(4-cyanopyrimidin-2-yl)acetamide] | < 10 µM | 2.82 µM
O=C(CN1CC2(CC2)c2c(ccc(I)c2F)C1=O)Nc1ncc(F)cn1 [Example 108, 2-(5-fluoro-6-iodo-1-oxospiro[3H-isoquinoline-4,1′-cyclopropane]-2-yl)-N-(5-fluoropyrimidin-2-yl)acetamide] | < 10 µM | 0.018 µM
O=C(CN1C[C@]2(C[C@H]2F)c2cc(Br)ccc2C1=O)Nc1ncccn1 [Example 109] | < 10 µM | 0.036 µM
O=C(CN1C[C@]2(C[C@H]2F)c2cc(Br)ccc2C1=O)Nc1ncc(Cl)cn1 [Example 110] | < 10 µM | 0.012 µM
O=C(CN1CC2(CC2)c2cc(Br)ccc2C1=O)NC1CC(C(F)F)C1 (centres unmarked) [Example 111, 2-(6-bromo-1-oxospiro[3H-isoquinoline-4,1′-cyclopropane]-2-yl)-N-[3-(difluoromethyl)cyclobutyl]acetamide] | < 10 µM | 2.42 µM
O=C(CN1CC2(CC2)c2cc(Br)ccc2C1=O)NCC1(CC(F)F)CCC1 [Example 112, 2-(6-bromo-1-oxospiro[3H-isoquinoline-4,1′-cyclopropane]-2-yl)-N-[[1-(2,2-difluoroethyl)cyclobutyl]methyl]acetamide] | > 15 µM | 13 µM
O=C(CN1CC2(CC2)c2cc(Br)ccc2C1=O)Nc1ccccc1OC(F)F [Example 113, 2-(6-bromo-1-oxospiro[3H-isoquinoline-4,1′-cyclopropane]-2-yl)-N-[2-(difluoromethoxy)phenyl]acetamide] | < 10 µM | 4.18 µM
Cc1cccc(NC(=O)CN2CC3(CC3)c3cc(Br)ccc3C2=O)n1 [Example 114, 2-(6-bromo-1-oxospiro[3H-isoquinoline-4,1′-cyclopropane]-2-yl)-N-(6-methylpyridin-2-yl)acetamide] | < 10 µM | 1.99 µM
Cc1noc(NC(=O)CN2CC3(CC3)c3cc(Br)ccc3C2=O)c1C [Example 115, 2-(6-bromo-1-oxospiro[3H-isoquinoline-4,1′-cyclopropane]-2-yl)-N-(3,4-dimethyl-1,2-oxazol-5-yl)acetamide] | > 15 µM | 15.4 µM
O=C(CN1CC2(CC2)c2cc(Br)ccc2C1=O)Nc1cccc2nccn12 [Example 116, 2-(6-bromo-1-oxospiro[3H-isoquinoline-4,1′-cyclopropane]-2-yl)-N-imidazo[1,2-a]pyridin-5-ylacetamide] | < 10 µM | 4.16 µM
O=C(CN1CC2(CC2)c2cc(Br)ccc2C1=O)NCC1COC1 [Example 117, 2-(6-bromo-1-oxospiro[3H-isoquinoline-4,1′-cyclopropane]-2-yl)-N-(oxetan-3-ylmethyl)acetamide] | > 15 µM | 19.8 µM
O=C(CN1CC2(CC2)c2cc(Br)ccc2C1=O)NC1CS(=O)(=O)C1 [Example 118, 2-(6-bromo-1-oxospiro[3H-isoquinoline-4,1′-cyclopropane]-2-yl)-N-(1,1-dioxothietan-3-yl)acetamide] | > 15 µM | 22.4 µM
O=C(CN1CC2(CC2)c2cc(Br)ccc2C1=O)NCc1ncco1 [Example 119, 2-(6-bromo-1-oxospiro[3H-isoquinoline-4,1′-cyclopropane]-2-yl)-N-(1,3-oxazol-2-ylmethyl)acetamide] | > 15 µM | 30.1 µM
Cn1ccnc1CNC(=O)CN1CC2(CC2)c2cc(Br)ccc2C1=O [Example 120, 2-(6-bromo-1-oxospiro[3H-isoquinoline-4,1′-cyclopropane]-2-yl)-N-[(1-methylimidazol-2-yl)methyl]acetamide] | > 15 µM | 24.8 µM
O=C(CN1CC2(CC2)c2cc(Br)ccc2C1=O)NCCn1ccnc1 [Example 121, 2-(6-bromo-1-oxospiro[3H-isoquinoline-4,1′-cyclopropane]-2-yl)-N-(2-imidazol-1-ylethyl)acetamide] | 10 to 15 µM | 12.1 µM
O=C(CN1CC2(CC2)c2cc(Br)ccc2C1=O)NCc1ccncc1 [Example 122, 2-(6-bromo-1-oxospiro[3H-isoquinoline-4,1′-cyclopropane]-2-yl)-N-(pyridin-4-ylmethyl)acetamide] | > 15 µM | 29.9 µM
CN(Cc1cnn(C)c1)C(=O)CN1CC2(CC2)c2cc(Br)ccc2C1=O [Example 123, 2-(6-bromo-1-oxospiro[3H-isoquinoline-4,1′-cyclopropane]-2-yl)-N-methyl-N-[(1-methylpyrazol-4-yl)methyl]acetamide] | > 15 µM | 34.9 µM
Cn1nccc1CNC(=O)CN1CC2(CC2)c2cc(Br)ccc2C1=O [Example 124, 2-(6-bromo-1-oxospiro[3H-isoquinoline-4,1′-cyclopropane]-2-yl)-N-[(2-methylpyrazol-3-yl)methyl]acetamide] | > 15 µM | 27.7 µM
